Assay in all cases: DTP human tumour cell line panel, 48 h
Assay [1] has as its system HCT-15.
Assay [2] has as its system SF-268.
The test system of assay [3] is PC-3.
For assay [4], the system named is MCF7.
Assay [5] concerns CAKI-1.
Assay [6] concerns MOLT-4.
Assay [7] relates to BT-549.
Assay [8] has as its system U-251.
In assay [9] the test system is K562.
For assay [10], the system named is HOP-92.
The test system of assay [11] is COLO 205.
In assay [12] the test system is IGROV-1.
Assay [13] has as its system HCC 2998.
For assay [14], the system named is HL-60.
The test system of assay [15] is OVCAR-4.
Assay [16] deals with MDA-MB-231.
Assay [17] has as its system SNB-19.
Assay [18] concerns TK-10.
Assay [19] deals with CCRF-CEM.
Assay [20] relates to RXF 393.

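Briefly, cells in 96-well plates were exposed to five compound concentrations for 48 h, and endpoints were estimated by linear interpolation. Abbreviation: GI50, concentration required for 50% inhibition of growth.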 Activity calls are given as the source filed them. Cut-off read from the data, not from the text of the source: active = GI50 up to about 1.1 µM and inactive = higher. Peptide text beside a SMILES is read from it. * marks the point of attachment. Boc = CC(C)(C)OC(=O)*; OBn = c1ccc(CO*)cc1; Bn = c1ccc(C*)cc1 Bounds are passed on as bounds.

Usually GI50 stands for the concentration at which growth is held to half of that of the control. For the compound `COC(=O)c1ccccc1OCc1cc(=O)oc2ccc(C)cc12`, the GI50 is above 100 µM in assay [1]; 29.1 µM (inactive) in assay [2]; > 100 µM (inactive) in [3]; 21.4 µM (inactive) in assay [4]; 52.5 µM (inactive) in [5]; > 100 µM (inactive) in assay [6]. Besides, the GI50 in [7] was 18.1 µM (inactive); in assay [8], 14.4 µM (inactive); in [9], > 100 µM (inactive); in [10] it was 24 µM (inactive); in assay [11] it was > 100 µM (inactive); in assay [12], 64.7 µM (inactive). The GI50 in [13] is > 100 µM (inactive); in assay [14], > 100 µM (inactive); in assay [15] it was 20 µM (inactive); in assay [16], 84.9 µM (inactive); in [17], 14.7 µM (inactive); in assay [18], 58.7 µM (inactive). The GI50 in assay [19] was > 100 µM (inactive).

For the compound `CCOC(=O)c1cc2c3c(c(C(C)=O)c(O)c2[nH]1)N(CC(C)CC)CC3` (stereo not given), the GI50 in assay [1] is 70.3 µM; in assay [2], 35 µM (inactive); in assay [3], 66.8 µM (inactive); in assay [4] it was > 100 µM (inactive); in assay [5], 64.9 µM (inactive); in assay [6] it was 26.3 µM (inactive). Also, the GI50 was 45.5 µM (inactive) in assay [7]; 78.2 µM (inactive) in [8]; 32.5 µM (inactive) in assay [9]; 45.3 µM (inactive) in assay [10]; > 100 µM (inactive) in [11]; > 100 µM (inactive) in assay [12]. The GI50 in assay [20] is 34.6 µM (inactive); in assay [14] it was 28.8 µM (inactive); in assay [15] it was 43.1 µM (inactive); in assay [16], 33 µM (inactive); in assay [17], 92 µM (inactive); in [18] it was > 100 µM (inactive). Besides, the GI50 in assay [19] was 35.6 µM (inactive).

With `CC(C)CC(NC(=O)C(CCC(=O)OCc1ccccc1)NC(=O)OC(C)(C)C)C(=O)NC(COCc1ccccc1)C(=O)NC(Cc1ccccc1)C(=O)O` (stereo not given) (Boc-E(OBn)LS(Bn)F-OH; configuration not given here), the GI50 is above 100 µM in [1]; > 100 µM (inactive) in assay [3]; > 100 µM (inactive) in assay [4]; > 100 µM (inactive) in assay [6]; > 100 µM (inactive) in assay [7]; > 100 µM (inactive) in assay [8]. For the same compound, the GI50 in assay [9], in assay [10], in assay [11], in assay [12], in [13] and in assay [20] was > 100 µM (inactive) throughout. Besides, the GI50 in assay [14], in assay [16], in [17] and in assay [18] was > 100 µM (inactive) each time.

Take `COc1ccc2cc(C(C)C(O)c3cc(F)c(F)c(F)c3F)ccc2c1` (stereo not given): the GI50 in assay [1] was above 100 µM; in [2], 76.4 µM (inactive); in assay [3] it was > 100 µM (inactive); in assay [4] it was > 100 µM (inactive); in assay [6], > 10 µM (inactive); in assay [7] it was > 100 µM (inactive). The GI50 in [8] is > 100 µM (inactive); in assay [9] it was 30.8 µM (inactive); in assay [10] it was 18.6 µM (inactive); in assay [11], > 100 µM (inactive); in assay [12], > 100 µM (inactive); in assay [13] it was > 100 µM (inactive). The GI50 in assay [14] is 18.7 µM (inactive); in assay [15], 70.5 µM (inactive); in [16], > 100 µM (inactive); in [17] it was > 100 µM (inactive); in [18], > 100 µM (inactive); in assay [19] it was > 100 µM (inactive).

Consider `CC(=O)OCC(OC(C)=O)C(OC(C)=O)C(/C=N\Nc1nc2ccccc2c(=O)[nH]1)=N\Nc1nc2ccccc2c(=O)[nH]1` (stereo not given), for which the GI50 was above 100 µM in assay [1]; > 100 µM (inactive) in assay [2]; > 100 µM (inactive) in assay [3]; > 100 µM (inactive) in assay [4]; > 100 µM (inactive) in assay [5]; > 100 µM (inactive) in assay [6]. Also, the GI50 in [7], in assay [8], in assay [9], in [10], in assay [11] and in assay [12] was > 100 µM (inactive) each time. Besides, the GI50 in assay [13] is 19.1 µM (inactive); in [20], > 100 µM (inactive); in assay [14], > 100 µM (inactive); in assay [16], > 100 µM (inactive); in [17], > 100 µM (inactive); in assay [19], 34.4 µM (inactive).

Take `N#Cc1c2ccc([N+](=O)[O-])cc2c(=O)n2c1[nH]c1ccc(C(F)(F)F)cc12`: the GI50 in [1] was 16.1 µM; in [2], 39.6 µM (inactive); in assay [3], > 38.2 µM (inactive); in assay [4], 63.4 µM (inactive); in assay [5] it was 60.8 µM (inactive); in assay [6] it was 14.5 µM (inactive). Moreover, the GI50 is 25.2 µM (inactive) in assay [7]; 26.4 µM (inactive) in [8]; 12.5 µM (inactive) in assay [9]; 12.9 µM (inactive) in assay [10]; 16.9 µM (inactive) in assay [11]; 34.2 µM (inactive) in [12]. For the same compound, the GI50 is 15.2 µM (inactive) in [13]; 0.254 µM (active) in [14]; 24.8 µM (inactive) in [15]; 22.2 µM (inactive) in [16]; 10.8 µM (inactive) in [17]; 99.5 µM (inactive) in assay [18]. In addition, the GI50 in assay [19] was 1.35 µM (inactive).

For the compound `O=S(=O)(Nc1nccs1)c1ccc([As](=O)(O)O)cc1`, the GI50 was above 100 µM in assay [1]; > 100 µM (inactive) in [2]; > 100 µM (inactive) in assay [3]; > 100 µM (inactive) in assay [4]; > 100 µM (inactive) in [5]; > 100 µM (inactive) in assay [6]. Besides, the GI50 in assay [7], in assay [8], in [9], in [10], in assay [11] and in assay [12] was > 100 µM (inactive) throughout. Moreover, the GI50 in assay [20], in [14], in [15], in assay [16], in [17] and in assay [18] was > 100 µM (inactive) each time. Also, the GI50 in assay [19] was > 100 µM (inactive).

For the compound `CC(Oc1ccc(Cl)cc1Cl)C(=O)NN1C(=O)CSC1c1ccc(Cl)cc1` (stereo not given), the concentration for 50% growth inhibition (GI50) in assay [1] was above 100 µM; in assay [2], 88.7 µM (inactive); in [3], 38.5 µM (inactive); in assay [4], 36.8 µM (inactive); in [5] it was 18.9 µM (inactive); in assay [6], 21.7 µM (inactive). The GI50 in assay [7] was 43.7 µM (inactive); in assay [8] it was 40.3 µM (inactive); in assay [9], 44.1 µM (inactive); in assay [10], 21 µM (inactive); in assay [11], > 100 µM (inactive); in [12], 36.1 µM (inactive). In addition, the GI50 was 54.8 µM (inactive) in assay [13]; 27 µM (inactive) in [20]; 35.3 µM (inactive) in assay [14]; 35.3 µM (inactive) in [15]; 27.4 µM (inactive) in assay [16]; 30.4 µM (inactive) in assay [17]. The GI50 in assay [18] was 80.5 µM (inactive).

Consider `COc1cccc2c1C(=O)c1c(O)c3c(c(O)c1C2=O)C[C@@](O)(C(C)=O)C[C@@H]3OC1CC(N(Cc2ccccc2)Cc2ccccc2)C(O)C(C)O1` (stereo not given in full), for which the GI50 is 4.95 µM in assay [1]; 14.2 µM (inactive) in assay [2]; 6.61 µM (inactive) in assay [3]; 12.4 µM (inactive) in assay [4]; 6.03 µM (inactive) in [5]; > 27.5 µM (inactive) in assay [7]. Moreover, the GI50 is 13.4 µM (inactive) in [8]; 3.64 µM (inactive) in assay [9]; 17.8 µM (inactive) in assay [10]; 14.6 µM (inactive) in assay [11]; 9.55 µM (inactive) in [12]; 29.4 µM (inactive) in assay [13]. Moreover, the GI50 in assay [20] is 30.6 µM (inactive); in assay [14] it was 9.55 µM (inactive); in [15], 15.1 µM (inactive); in [16], 10.9 µM (inactive); in [17], 21.7 µM (inactive); in assay [18], 13.7 µM (inactive). For the same compound, in [19], the GI50 was 2.43 µM (inactive).

Take `S=C(N/N=C/c1ccccn1)Nc1ccc(Cl)cc1`: the concentration for 50% growth inhibition (GI50) was 0.0398 µM in assay [1]; 0.05 µM (active) in assay [2]; 0.0424 µM (active) in assay [3]; 0.0489 µM (active) in assay [4]; < 0.0125 µM (active) in [5]; < 0.01 µM (active) in assay [6]. The GI50 was 0.233 µM (active) in assay [7]; 0.0528 µM (active) in assay [8]; < 0.01 µM (active) in assay [9]; 0.282 µM (active) in assay [10]; < 0.0175 µM (active) in [11]; 0.0933 µM (active) in [12]. For the same compound, the GI50 in [13] is 0.59 µM (active); in assay [14], 0.0317 µM (active); in assay [15] it was 0.689 µM (active); in assay [16] it was 0.0542 µM (active); in assay [17], 0.483 µM (active); in assay [18] it was 2.93 µM (inactive). Further, the 50% growth inhibitory concentration (GI50) in assay [19] was < 0.01 µM (active).

The record behind these values is ChEMBL document CHEMBL1201862, “PubChem BioAssay data set” (2004).
